Measured values reported in PMC11497205, “Gold(I) Complexes Based on Nonsteroidal Anti-Inflammatory Derivatives as Multi-Target Drugs against Colon Cancer” (Inorganic Chemistry, 2024).

Assays:
[1] = Distribution coefficient log D7.4; format: physicochemical; conditions: pH 7.4
Description: Table 1 Distribution Coefficients and IC50 (μM) ^b Values of the Complexes on Caco-2/TC7 Cancer Cells Compared with Auranofin ^a | column: log D7.4

Caco-2/TC7 cells = assay: MTT antiproliferative assay on Caco-2/TC7 colon cancer cells; format: cell-based, human; conditions: 72 h incubation, undifferentiated cells, mean ± SE
Description: The antiproliferative effect of the reference drug auranofin was included as positive control. […] However, the coordination of the gold-phosphane unit to these ligands derived from NSAIDs leads to much more cytotoxic complexes, as can be observed in Table 1 with IC50 values in the range of that found in auranofin or even lower values for complexes [Au(L1)(CyJohnPhos)] (1a), [Au(L4)(CyJohnPhos)] […] This fact has already been observed previously in related gold complexes with an alkyne ligand derived from naproxen molecule,[43] which makes naproxen an excellent pharmacophore when coordinated to gold(I).
The human Caco-2 cell line (TC7 clone) was kindly provided by Dr. Edith Brot-Laroche (Université Pierre et Marie Curie-Paris 6, UMR S 872, Les Cordeliers, France), Human epithelial fibroblast cells (NHDF-Ad, Lonza, Porriño, Spain) were kindly provided by Dr. Gracia Mendoza (Aragon Health Research Institute, IIS Aragón, Spain). Caco-2 cells (passages 36–48) and fibroblasts (passages 10–20) were maintained in a humidified atmosphere of 5% CO2 at 37 °C in Dulbecco’s Modified Eagles medium (DMEM) (Gibco Invitrogen. Paisley. UK) supplemented with 20% fetal bovine serum, 1% nonessential amino acids, 1% penicillin (1000 U/mL), 1% streptomycin ([…]) and 1% amphotericin (250 U/mL). The Caco-2 cells were subcultured in 25 cm^2 plastic flasks at a density of 3 × 10^5 cells/cm^2, while the fibroblasts were subcultured on 75 cm^2 plastic flasks at a density of 1 × 10^4 cells/cm^2. The culture medium was replaced every 2 days.
The gold complexes were diluted in dimethyl sulfoxide (DMSO) as a 10 mM stock solution and then diluted in a cell culture medium at the desired concentrations. For the cytotoxicity screening assays, Caco-2 cells were seeded in 96-well plates at a density of 4 × 10^3 cells/well. […] The antiproliferative effect was measured using an MTT assay, as previously described by Marmol et al.[93] The absorbance at 540/620 nm was measured using a SPECTROstar Nano (BMG Labtech. Ortenberg. Germany). […]

COX-1 = biological target: T1, COX-1 (Homo sapiens, UniProt P23219); assay: Intracellular COX-1 activity, kit on Caco-2/TC7 cell lysates; format: cell-based; conditions: Caco-2/TC7 cells, 24 h incubation with 20 μM of free ligands, mean ± SEM
T1 construct: a cyclooxygenase activity assay kit starting from Caco-2/TC7 cell lysates was used; endogenous in cells; host or cells: Caco-2/TC7 (human colon carcinoma)
Description: (§1) Previous studies have shown that modifications in the structure of the naproxen molecule have led to effective inhibition of COX-2, with a high degree of selectivity compared to the COX-1 isoform.[63],[64] Thus, we have tested the inhibitory activity of the best active compounds [Au(L3)(JohnPhos)] […] For this purpose, a cyclooxygenase activity assay kit starting from Caco-2/TC7 cell lysates was used, aiming to develop a new class of inhibitors that present a balanced COX-1/COX-2 inhibition to control the severe side effects resulting from nonselective COX inhibition. Inhibition of COX enzymes is expressed as the percentage of inhibition relative to control COX-1 or COX-2 activity. […] Complex [Au(L4)(JohnPhos)] […] This fact underscores the importance of the coordination of the metal center to the NSAID derivative, since the presence of the gold center is essential for achieving selectivity toward the COX-2 isoform, similar to what is observed in other gold compounds for different biomolecules.[65],[66]
(§2) The interaction of metal complexes with the enzyme cyclooxygenase was analyzed using a cyclooxygenase (COX) Activity Assay Kit (fluorometric) (AB204699 Abcam Inc. Massachusetts, USA). The procedural guidelines of the supplied kit were followed. The reaction commenced with the introduction of AA.

COX-2 = biological target: T2, COX-2 (Homo sapiens, UniProt P35354); assay: Intracellular COX-2 activity, kit on Caco-2/TC7 cell lysates; format: cell-based; conditions: Caco-2/TC7 cells, 24 h incubation with 20 μM of free ligands, mean ± SEM
T2 construct: a cyclooxygenase activity assay kit starting from Caco-2/TC7 cell lysates was used; endogenous in cells; host or cells: Caco-2/TC7 (human colon carcinoma)
T2 sequence (P35354 18-604): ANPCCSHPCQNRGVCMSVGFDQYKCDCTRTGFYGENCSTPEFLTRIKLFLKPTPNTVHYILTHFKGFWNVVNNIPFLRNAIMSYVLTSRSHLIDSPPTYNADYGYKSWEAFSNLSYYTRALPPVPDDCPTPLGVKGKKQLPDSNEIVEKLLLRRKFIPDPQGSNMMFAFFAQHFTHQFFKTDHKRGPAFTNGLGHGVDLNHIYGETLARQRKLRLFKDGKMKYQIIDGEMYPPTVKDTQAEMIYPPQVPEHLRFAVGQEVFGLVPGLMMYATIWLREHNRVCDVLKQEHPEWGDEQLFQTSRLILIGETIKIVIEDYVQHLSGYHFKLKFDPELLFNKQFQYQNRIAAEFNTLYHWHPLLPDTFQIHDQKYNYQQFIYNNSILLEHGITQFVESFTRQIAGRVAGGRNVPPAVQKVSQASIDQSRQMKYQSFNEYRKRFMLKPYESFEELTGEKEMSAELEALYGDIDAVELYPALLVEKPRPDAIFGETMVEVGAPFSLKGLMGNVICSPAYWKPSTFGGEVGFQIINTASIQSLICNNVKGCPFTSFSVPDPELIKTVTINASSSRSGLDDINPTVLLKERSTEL
Description: as §1, §2

T1 sequence (P23219 24-599): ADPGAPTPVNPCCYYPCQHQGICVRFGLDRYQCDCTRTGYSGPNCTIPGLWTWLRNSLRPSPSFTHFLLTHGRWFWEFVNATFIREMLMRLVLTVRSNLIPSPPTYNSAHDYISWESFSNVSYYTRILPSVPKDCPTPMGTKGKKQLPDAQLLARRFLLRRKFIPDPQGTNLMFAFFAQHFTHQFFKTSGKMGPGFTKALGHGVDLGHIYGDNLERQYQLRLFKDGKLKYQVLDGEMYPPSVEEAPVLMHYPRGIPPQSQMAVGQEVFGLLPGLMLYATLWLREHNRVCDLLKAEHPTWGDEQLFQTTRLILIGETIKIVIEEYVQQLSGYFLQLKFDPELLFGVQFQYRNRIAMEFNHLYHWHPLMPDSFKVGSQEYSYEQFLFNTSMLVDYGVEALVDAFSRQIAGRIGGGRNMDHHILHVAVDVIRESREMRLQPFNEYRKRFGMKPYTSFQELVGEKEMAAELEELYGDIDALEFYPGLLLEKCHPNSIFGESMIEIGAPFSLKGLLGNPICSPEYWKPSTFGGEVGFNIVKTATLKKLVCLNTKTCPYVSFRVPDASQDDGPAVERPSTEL

| Structure (SMILES) | log D7.4 [1] | IC50 (Caco-2/TC7 cells) [nM] | Percent inhibition of COX-1 (COX-1) [%] | Percent inhibition of COX-2 (COX-2) [%] |
| --- | --- | --- | --- | --- |
| CC[PH](CC)(CC)[Au][S][C@@H]1O[C@H](COC(C)=O)[C@@H](OC(C)=O)[C@H](OC(C)=O)[C@H]1OC(C)=O [Auranofin, reference compound] | –2.53 | 1800 ± 100 | – | – |
| COC(=O)[C@H](CCSC)NC(=O)c1ccccc1Nc1cccc(C)c1C [L1, Methyl (2-((2,3-Dimethylphenyl)amino)benzoyl)methioninate] | – | – | 15.2 ± 5.7 | 63.1 ± 8.9 |
| COC(=O)[C@H](CCSC)NC(=O)C(C)c1ccc(CC(C)C)cc1 (stereo partly drawn) [L2, Methyl (2-(4-Isobutylphenyl)propanoyl)methioninate] | – | – | 15.9 ± 7.3 | 55.8 ± 8.1 |
| COC(=O)C(CCSC)NC(=O)Cc1c(C)n(C(=O)c2ccc(Cl)cc2)c2ccc(OC)cc12 (stereo not drawn) [L3] | – | – | 22.9 ± 10.7 | 53.6 ± 14.3 |
| COC(=O)[C@H](CCSC)NC(=O)[C@@H](C)c1ccc2cc(OC)ccc2c1 [L4, Methyl ((S)-2-(6-Methoxynaphthalen-2-yl)propanoyl)methioninate] | – | – | 36.9 ± 7.6 | 44.7 ± 13.4 |
| CC#N.[Au+].[F][Sb-]([F])([F])([F])([F])[F].c1ccc(-c2ccccc2P(C2CCCCC2)C2CCCCC2)cc1 [[Au(MeCN)(CyJohnPhos)]SbF6, reference compound] | – | 1240 ± 670 | – | – |
| CC#N.CC(C)(C)P(c1ccccc1-c1ccccc1)C(C)(C)C.[Au+].[F][Sb-]([F])([F])([F])([F])[F] [[Au(MeCN)(JohnPhos)]SbF6, reference compound] | – | 900 ± 760 | – | – |
